Measurements taken from patent US7557066B2, “Use of sulfonylureas” (Bayer CropScience AG, priority 2004, dated 2009).

How the values were obtained:
CIRAR = assay: Inhibition of revegetation of perennial plants; assay type: in vivo; details: 600 g of a.i./ha; cut four weeks after application, scored after a further four weeks; 100% = total inhibition
Excerpt: (§1) […] Four weeks after the application, the above-ground parts of the plants were cut off. After a further four weeks, the inhibition of revegetation was scored in percent of the control, 100% corresponding to a total inhibition of revegetation.

LOLPE = assay: Inhibition of revegetation of perennial plants; assay type: in vivo; details: 600 g of a.i./ha; cut four weeks after application, scored after a further four weeks; 100% = total inhibition
Excerpt: as §1

[1] = test system: monocotyledonous and dicotyledonous weeds; assay: Post-emergence effect on weeds (greenhouse, visual scoring); assay type: in vivo, weed grasses and broad-leaved weeds; details: 100 g or less of active substance per hectare; against Sinapsis alba, Echinochloa crus-galli, Lolium multiflorum, Chrysanthemum segetum, Setaria viridis, Abutilon theophrasti, Amaranthus retroflexus, Panicum miliaceum, Brachiaria plantaginea, Solanum nigrum, Euphorbia heterophylla, Sorghum halepense, Avena sativa; scored after about 3 to 4 weeks
Experimental: (§2) Seeds or rhizome pieces of monocotyledonous and dicotyledonous weeds were placed in a sandy loam soil in plastic pots, covered with soil and cultivated in a greenhouse under good growth conditions. Three weeks after sowing, the test plants were treated at the three-leaf stage. The compounds of the formula (I) or their salts, formulated as wettable powders or as emulsion concentrates, were sprayed, at various dosages, onto the green parts of the plants at an application rate of 600 to 800 l of water/ha (converted). After the test plants had remained in the greenhouse for about 3 to 4 weeks under optimum growth conditions, the effect of the preparations was scored visually by comparison with untreated controls. The tested compounds also have good herbicidal post-emergence activity against a broad spectrum of economically important weed grasses and broad-leaved weeds. […] Crop Plant Compatibility

soybeans (Glycine max.) = assay: Crop plant compatibility (greenhouse, visual scoring); assay type: in vivo; details: for damage to crops of leguminous plants, such as soybeans: pre-emergence or post-emergence method, various dosages, visual scoring four to five weeks after application
Experimental: In further greenhouse experiments, seeds of a substantial number of crop plants and weeds were placed into sandy loam soil and covered with soil. Some of the pots were treated immediately as described under Section 1, and the remaining pots were placed in a greenhouse until the plants had developed two to three true leaves and then sprayed with various dosages of the compounds of the formula (I) or salts thereof, as described in Section 2.

[2] = test system: monocotyledonous and dicotyledonous weed plants; assay: Pre-emergence effect on weeds (greenhouse, visual scoring); assay type: in vivo, weed grasses and broad-leaved weeds; details: 100 g or less of active substance per hectare; against Sinapsis alba, Chrysanthemum segetum, Avena sativa, Stellaria media, Echinochloa crus-galli, Lolium multiflorum, Setaria viridis, Abutilon theophrasti, Amaranthus retroflexus, Brachiaria plantaginea, Solanum nigrum, Euphorbia heterophylla, Sorghum halepense, Panicum miliaceum; scored after 3 to 4 weeks
Excerpt: Seeds or rhizome pieces of monocotyledonous and dicotyledonous weed plants were placed in sandy loam soil in cardboard pots and covered with soil. The compounds of the formula (I) or their salts, formulated in the form of wettable powders or emulsion concentrates, were then applied to the surface of the soil cover in the form of aqueous suspensions or emulsions at an application rate of 600 to 800 l of water/ha (converted) in various dosages.
After the treatment, the pots were placed in a greenhouse and kept under good growth conditions for the weeds. After the test plants had emerged, the damage to the plants or the negative effect on the emergence was scored visually after a test period of 3 to 4 weeks by comparison with untreated controls. As shown by the test results, the compounds tested have good herbicidal pre-emergence activity against a broad spectrum of weed grasses and broad-leaved weeds. […] Post-Emergence Effect on Weeds

Setaria viridis = assay: Post-emergence effect on weeds; assay type: in vivo; details: 30 g of active substance per hectare
Experimental: as §2

Solanum nigrum = assay: Post-emergence effect on weeds; assay type: in vivo; details: 30 g of active substance per hectare
Experimental: as §2

Amaranthus retroflexus = assay: Post-emergence effect on weeds; assay type: in vivo; details: 30 g of active substance per hectare
Experimental: as §2

Brachiaria plantaginea = assay: Post-emergence effect on weeds; assay type: in vivo; details: 30 g of active substance per hectare
Experimental: as §2

Echinochloa crus-galli = assay: Post-emergence effect on weeds; assay type: in vivo; details: 30 g of active substance per hectare
Experimental: as §2

SMILES	herbicidal action by the post-emergence method [1]	damage to crops of leguminous plants, such as soybeans (soybeans (Glycine max.))	herbicidal action in the pre-emergence method [2]	further results
O=C(O)CNCP(=O)(O)O [Glyphosate]	–	–	–	inhibition of revegetation, CIRAR (CIRAR): 25%; inhibition of revegetation, LOLPE (LOLPE): 35%
CCOc1cc(OC)nc(NC(=O)NS(=O)(=O)c2ncccc2C2=NOCCO2)n1 [I-1]	very good herbicidal action	did not damage	very good herbicidal action	–
COc1cc(C)nc(NC(=O)[N-]S(=O)(=O)c2ncccc2C2=NOCCO2)n1.[Na+] [I-3]	very good herbicidal action	did not damage	very good herbicidal action	–
COc1cc(N(C)C)nc(NC(=O)NS(=O)(=O)c2ncccc2C2=NOCCO2)n1 [I-8]	very good herbicidal action	did not damage	very good herbicidal action	–
COc1cc(Cl)nc(NC(=O)NS(=O)(=O)c2ncccc2C2=NOCCO2)n1 [I-9]	very good herbicidal action	did not damage	very good herbicidal action	herbicidal activity against Setaria viridis (Setaria viridis): 100%; herbicidal activity against Solarium nigrum (Solanum nigrum): 100%; herbicidal activity against Amaranthus retroflexus (Amaranthus retroflexus): 93%; herbicidal activity against Brachiaria plantaginea (Brachiaria plantaginea): 100%; herbicidal activity against Echinochloa crus-galli (Echinochloa crus-galli): 100%; damage to soybeans (Glycine max.) (soybeans (Glycine max.); 8 g of active substance per hectare): 0%
COc1cc(Cl)nc(NC(=O)[N-]S(=O)(=O)c2ncccc2C2=NOCCO2)n1.[Na+] [I-10]	very good herbicidal action	did not damage	very good herbicidal action	–
COc1cc(OC)nc(NC(=O)NS(=O)(=O)c2ncccc2C2=NOCCO2)n1 [I-11]	very good herbicidal action	did not damage	very good herbicidal action	–
COc1cc(OC)nc(NC(=O)[N-]S(=O)(=O)c2ncccc2C2=NOCCO2)n1.[Na+] [I-12]	very good herbicidal action	did not damage	very good herbicidal action	–
CCOc1cc(OCC)nc(NC(=O)[N-]S(=O)(=O)c2ncccc2C2=NOCCO2)n1.[Na+] [I-14]	very good herbicidal action	did not damage	very good herbicidal action	–
CCOc1cc(Cl)nc(NC(=O)NS(=O)(=O)c2ncccc2C2=NOCCO2)n1 [I-21]	very good herbicidal action	did not damage	very good herbicidal action	–
CCOc1cc(Cl)nc(NC(=O)[N-]S(=O)(=O)c2ncccc2C2=NOCCO2)n1.[Na+] [I-22]	very good herbicidal action	did not damage	very good herbicidal action	–
Cc1cc(C)nc(NC(=O)NS(=O)(=O)c2ncccc2C2=NOCCO2)n1 [I-23]	very good herbicidal action	did not damage	very good herbicidal action	–
Cc1cc(Cl)nc(NC(=O)NS(=O)(=O)c2ncccc2C2=NOCCO2)n1 [I-29]	very good herbicidal action	did not damage	very good herbicidal action	–
Cc1cc(Cl)nc(NC(=O)[N-]S(=O)(=O)c2ncccc2C2=NOCCO2)n1.[Na+] [I-30]	very good herbicidal action	did not damage	very good herbicidal action	–
COc1nc(NC(=O)NS(=O)(=O)c2ncccc2C2=NOCCO2)nc(OC)n1 [I-51]	very good herbicidal action	did not damage	very good herbicidal action	–
COc1nc(NC(=O)[N-]S(=O)(=O)c2ncccc2C2=NOCCO2)nc(OC)n1.[Na+] [I-52]	very good herbicidal action	did not damage	very good herbicidal action	–
COc1nc(NC(=O)[N-]S(=O)(=O)c2ncccc2C2=NOCCO2)nc(N(C)C)n1.[Na+] [I-60]	very good herbicidal action	did not damage	very good herbicidal action	–
CCOc1nc(Cl)nc(NC(=O)[N-]S(=O)(=O)c2ncccc2C2=NOCCO2)n1.[Na+] [I-70]	very good herbicidal action	did not damage	very good herbicidal action	–
CN(C)c1nc(NC(=O)NS(=O)(=O)c2ncccc2C2=NOCCO2)nc(OCC(F)(F)F)n1 [I-142]	very good herbicidal action	did not damage	very good herbicidal action	–
O=C(Nc1nc(Cl)cc(OCC(F)(F)F)n1)NS(=O)(=O)c1ncccc1C1=NOCCO1 [I-143]	very good herbicidal action	did not damage	very good herbicidal action	–
O=C([N-]S(=O)(=O)c1ncccc1C1=NOCCO1)Nc1nc(Cl)cc(OCC(F)(F)F)n1.[Na+] [I-145]	very good herbicidal action	did not damage	very good herbicidal action	–
